# Legend:
# [1] = system: human adrenal gland section expressing aldosterone-producing adenoma; test: In vitro autoradiography using human adrenal adenoma; type: binding
# Description: From adrenal gland excised from a human patient for treatment of primary aldosteronism, a portion containing aldosterone-producing adenoma was removed and was then frozen. The frozen adrenal gland was embedded in an embedding agent for production of a frozen tissue section (Tissue-Tek O.C.T. Compound, Sakura Finetek Japan). Using a freezing microtome (CM3050S, Leica Microsystems), a 7-μm thin slice section, which is schematically shown in FIGS. 17(a) and 17(b), was produced, and was preserved at −20° C. before use. In FIGS. 17, 71a and 71b indicate aldosterone-producing adenomas, 72a and 72b indicate normal adrenal cortexes, and 73a and 73b indicate normal adrenal medullas. A 5-33 kBq/mL solution was prepared by adding a suitable amount of each of Compounds [^18F] 100, [^18F] 200, [^123I] 400, [^18F] 500, and [^123I] 601 to [^123I] 610, which were obtained by the methods described in Examples 2, 4, 7, 9, 11, 13, 15, 17, 19, 21, 23, 25, 27, and 29, or [^123I] IMTO to a phosphate-buffered physiological saline containing 1 w/v % bovine serum albumin (not containing fatty acid). The radioactivity concentration was measured using an autowell gamma system (ARC-7001, manufactured by Hitachi Aloka Medical, Ltd.). The section was immersed in the obtained sample solution for 10 minutes. For Compounds [^18F] 100, [^18F] 200, [^123I] 400, [^18F] 500, [^123I] 601 and [^123I] 602, the section shown in FIG. 17(a) was used, and for Compounds […] [^123I] IMTO, both sections shown in FIGS. 17(a) and (b) were used. Each sample solution was washed off, and the section was then exposed to an imaging plate (BAS-SR2040, manufactured by FUJIFILM Holdings Corporation) (IP) for 16-20 hours, and thereafter, an autoradiogram was obtained using a fluoro-image analyzer (FLA-7000, manufactured by FUJIFILM Holdings Corporation).
# In order to quantitatively compare differences between images caused by ^123I and ^18F nuclides, a correction was made by calculating accumulation of radioactivity within the range of a region of interest (ROI) by means of integral calculation based on half-life, added radioactivity and IP contact time.
# 610. FIG. 18(b), FIG. 19(b), FIG. 20(b), FIG. 21(b), FIG. 22(a), FIG. 23(a), FIG. 24(a), FIG. 25(a), FIG. 26(a), FIG. 27(a), FIG. 28(a), FIG. 29(a), FIG. 30(a), and FIG. 31(a) each show an autoradiogram of [^123I] IMTO. […] 100, [^18F] 200, [^123I] 400, [^18F] 500, and [^123I] 601 to [^123I] […] The ROI having the same area as each other was established in a normal site and in a site in which aldosterone-producing adenoma had developed. Then, the PSL value (B1) indicating accumulation of radioactivity in the sites of normal adrenal cortexes 72a and 72b was compared with the PSL value (B2) indicating accumulation of radioactivity in the sites of aldosterone-producing adenomas 71a and 71b. In Table 7, the B1, B2 and B2/B1 values of [^18F] 100 indicate the mean values for the number of tests (n), respectively.
# [2] = In vivo kinetics experiment (radioactivity distribution); parameters: species or system Wistar male rat; settings: rat; for Adrenal gland/blood ratio of radioactivity accumulation / Adrenal gland/fat ratio of radioactivity accumulation / Adrenal gland/kidney ratio of radioactivity accumulation / Adrenal gland/liver ratio of radioactivity accumulation / Adrenal gland/muscle ratio of radioactivity accumulation / Adrenal gland/small intestine ratio of radioactivity accumulation / Radioactivity distribution Adrenal gland / Radioactivity distribution Bladder (including urine) / Radioactivity distribution Blood / Radioactivity distribution Fat / Radioactivity distribution Heart / Radioactivity distribution Kidney / Radioactivity distribution Large intestine / Radioactivity distribution Liver / Radioactivity distribution Lung / Radioactivity distribution Muscle (lower limbs) / Radioactivity distribution Remaining whole body / Radioactivity distribution Small intestine / Radioactivity distribution Spleen / Radioactivity distribution Stomach / Radioactivity distribution Testis / Radioactivity distribution Thyroid gland / Radioactivity distribution Whole brain: caudal vein
# Experimental: Each of Compounds [^18F] 100, [^18F] 200, [^123I] 400, [^18F] 500, and [^123I] 601 to 610 obtained by the methods described in Examples 2, 4, 7, 9, 11, 13, 15, 17, 19, 21, 23, 25, 27, and 29, or [^123I] IMTO, was diluted with a physiological saline containing 1 w/v % ascorbic acid to prepare a solution to be administered. The above described compound (approximately 1 to 3.7 MBq) was injected into the caudal vein of a Wistar male rat (9 weeks old) under anesthesia with a mixed gas of isoflurane/air, and ten minutes after the injection, the rat was sacrificed by exsanguination. From the thus sacrificed rat, blood and organs (heart, lung, stomach, liver, spleen, small intestine, large intestine, kidney, bladder (including urine), muscle (lower limbs), brain, adrenal gland, testis, fat, femur, or thyroid gland) were excised, and the weights thereof were then measured. Thereafter, radioactivity was measured in the blood, the individual excised organs, and the remaining whole body. Further, 30 and 60 minutes after the administration, the same operations as those described above were carried out. […] The symbol “n” in Tables 9 to 23 indicates the number of rats used. In addition, Tables 9 to 23 also show the ratio of radioactivity accumulation in adrenal grand (% ID/g) to radioactivity accumulation in each of blood, liver, kidney, small intestine, muscle and fat (% ID/g).
# [3] = Plasma stability evaluation (TLC analysis); type: in vitro ADME; settings: 37° C., 60 minutes
# Experimental: Evaluation was made using a heparin-treated normal human plasma pool (Kohjin Bio Co., Ltd.). Compounds [^18F] 100, [^18F] 200, [^123I] 400, [^18F] 500, and [^123I] 601 to 610 obtained by the methods shown in Examples 2, 4, 7, 9, 11, 13, 15, 17, 19, 21, 23, 25, 27, and 29 were each added to the aforementioned human plasma (5 mL), and the obtained mixture was then incubated at 37° C. for 60 minutes. Thereafter, the mixture was centrifuged with addition of methanol, so that a deproteinization treatment was carried out. Thereafter, stability was evaluated by TLC analysis. As TLC analysis conditions, the TLC analysis conditions applied upon the above described synthesis of each compound were applied.
compound,measurement,setting,value
"FCCn1c(-c2cncc(Cn3ccnc3)c2)nc2cc(F)c([123I])cc21 [[^123I] 400, 5-Fluoro-1-(2-fluoroethyl)-2-[5-(imidazol-1-ylmethyl)pyridin-3-yl]-6-[^123I]iodobenzimidazole]",accumulation of radioactivity in adrenal gland section (autoradiogram),[1]; FIGS. 18 to 31,accumulation of radioactivity was selectively observed in a region in which aldosterone-producing adenoma had been pathologically observed
same,B2/B1 accumulation ratio,[1]; section of FIG. 17(a),2.89
same,"B2 (PSL value, aldosterone-producing adenoma)","[1]; section of FIG. 17(a), site 71a",4611
same,"B1 (PSL value, normal adrenal cortex)","[1]; section of FIG. 17(a), site 72a",1596
same,accumulation of radioactivity in adrenal gland vs blood and peripheral tissues,[2]; Tables 9 to 22,"high accumulation of radioactivity in adrenal gland was observed, in comparison to in blood and peripheral tissues"
same,Adrenal gland/blood ratio of radioactivity accumulation,[2]; 10 min after administration,28.34
same,Adrenal gland/fat ratio of radioactivity accumulation,[2]; 10 min after administration,89.23
same,Adrenal gland/kidney ratio of radioactivity accumulation,[2]; 10 min after administration,5.85
same,Adrenal gland/liver ratio of radioactivity accumulation,[2]; 10 min after administration,3.02
same,Adrenal gland/muscle ratio of radioactivity accumulation,[2]; 10 min after administration,54.21
same,Adrenal gland/small intestine ratio of radioactivity accumulation,[2]; 10 min after administration,6.95
same,Radioactivity distribution Adrenal gland,[2]; 10 min after administration,9.09 % ID/g
same,Radioactivity distribution Bladder (including urine),[2]; 10 min after administration,0.32 % ID/g
same,Radioactivity distribution Blood,[2]; 10 min after administration,0.32 % ID/g
same,Radioactivity distribution Fat,[2]; 10 min after administration,0.10 % ID/g
same,Radioactivity distribution Heart,[2]; 10 min after administration,0.63 % ID/g
same,Radioactivity distribution Kidney,[2]; 10 min after administration,1.54 % ID/g
same,Radioactivity distribution Large intestine,[2]; 10 min after administration,0.19 % ID/g
same,Radioactivity distribution Liver,[2]; 10 min after administration,2.98 % ID/g
same,Radioactivity distribution Lung,[2]; 10 min after administration,1.06 % ID/g
same,Radioactivity distribution Muscle (lower limbs),[2]; 10 min after administration,0.17 % ID/g
same,Radioactivity distribution Remaining whole body,[2]; 10 min after administration,0.27 % ID/g
same,Radioactivity distribution Small intestine,[2]; 10 min after administration,1.30 % ID/g
same,Radioactivity distribution Spleen,[2]; 10 min after administration,5.26 % ID/g
same,Radioactivity distribution Stomach,[2]; 10 min after administration,1.03 % ID/g
same,Radioactivity distribution Testis,[2]; 10 min after administration,0.07 % ID/g
same,Radioactivity distribution Thyroid gland,[2]; 10 min after administration,3.54 % ID/g
same,Radioactivity distribution Whole brain,[2]; 10 min after administration,0.02 % ID/g
same,Adrenal gland/blood ratio of radioactivity accumulation,[2]; 30 min after administration,40.26
same,Adrenal gland/fat ratio of radioactivity accumulation,[2]; 30 min after administration,147.73
same,Adrenal gland/kidney ratio of radioactivity accumulation,[2]; 30 min after administration,17.90
same,Adrenal gland/liver ratio of radioactivity accumulation,[2]; 30 min after administration,13.82
same,Adrenal gland/muscle ratio of radioactivity accumulation,[2]; 30 min after administration,110.91
same,Adrenal gland/small intestine ratio of radioactivity accumulation,[2]; 30 min after administration,9.24
same,Radioactivity distribution Adrenal gland,[2]; 30 min after administration,16.93 % ID/g
same,Radioactivity distribution Bladder (including urine),[2]; 30 min after administration,1.35 % ID/g
same,Radioactivity distribution Blood,[2]; 30 min after administration,0.43 % ID/g
same,Radioactivity distribution Fat,[2]; 30 min after administration,0.12 % ID/g
same,Radioactivity distribution Heart,[2]; 30 min after administration,0.49 % ID/g
same,Radioactivity distribution Kidney,[2]; 30 min after administration,0.95 % ID/g
same,Radioactivity distribution Large intestine,[2]; 30 min after administration,0.19 % ID/g
same,Radioactivity distribution Liver,[2]; 30 min after administration,1.24 % ID/g
same,Radioactivity distribution Lung,[2]; 30 min after administration,0.76 % ID/g
same,Radioactivity distribution Muscle (lower limbs),[2]; 30 min after administration,0.15 % ID/g
same,Radioactivity distribution Remaining whole body,[2]; 30 min after administration,0.31 % ID/g
same,Radioactivity distribution Small intestine,[2]; 30 min after administration,1.83 % ID/g
same,Radioactivity distribution Spleen,[2]; 30 min after administration,5.44 % ID/g
same,Radioactivity distribution Stomach,[2]; 30 min after administration,2.24 % ID/g
same,Radioactivity distribution Testis,[2]; 30 min after administration,0.12 % ID/g
same,Radioactivity distribution Thyroid gland,[2]; 30 min after administration,9.97 % ID/g
same,Radioactivity distribution Whole brain,[2]; 30 min after administration,0.02 % ID/g
same,Adrenal gland/blood ratio of radioactivity accumulation,[2]; 60 min after administration,29.41 ± 3.13
same,Adrenal gland/fat ratio of radioactivity accumulation,[2]; 60 min after administration,105.17 ± 28.98
same,Adrenal gland/kidney ratio of radioactivity accumulation,[2]; 60 min after administration,18.87 ± 3.12
same,Adrenal gland/liver ratio of radioactivity accumulation,[2]; 60 min after administration,16.66 ± 3.13
same,Adrenal gland/muscle ratio of radioactivity accumulation,[2]; 60 min after administration,95.38 ± 22.07
same,Adrenal gland/small intestine ratio of radioactivity accumulation,[2]; 60 min after administration,6.64 ± 2.31
same,Radioactivity distribution Adrenal gland,[2]; 60 min after administration,11.65 ± 1.54 % ID/g
same,Radioactivity distribution Bladder (including urine),[2]; 60 min after administration,1.27 ± 0.07 % ID/g
same,Radioactivity distribution Blood,[2]; 60 min after administration,0.40 ± 0.01 % ID/g
same,Radioactivity distribution Fat,[2]; 60 min after administration,0.11 ± 0.02 % ID/g
same,Radioactivity distribution Heart,[2]; 60 min after administration,0.35 ± 0.03 % ID/g
same,Radioactivity distribution Kidney,[2]; 60 min after administration,0.62 ± 0.08 % ID/g
same,Radioactivity distribution Large intestine,[2]; 60 min after administration,0.43 ± 0.19 % ID/g
same,Radioactivity distribution Liver,[2]; 60 min after administration,0.70 ± 0.05 % ID/g
same,Radioactivity distribution Lung,[2]; 60 min after administration,0.60 ± 0.03 % ID/g
same,Radioactivity distribution Muscle (lower limbs),[2]; 60 min after administration,0.12 ± 0.02 % ID/g
same,Radioactivity distribution Remaining whole body,[2]; 60 min after administration,0.33 ± 0.02 % ID/g
same,Radioactivity distribution Small intestine,[2]; 60 min after administration,1.85 ± 0.44 % ID/g
same,Radioactivity distribution Spleen,[2]; 60 min after administration,5.27 ± 0.89 % ID/g
same,Radioactivity distribution Stomach,[2]; 60 min after administration,4.35 ± 0.25 % ID/g
same,Radioactivity distribution Testis,[2]; 60 min after administration,0.15 ± 0.01 % ID/g
same,Radioactivity distribution Thyroid gland,[2]; 60 min after administration,19.76 ± 1.03 % ID/g
same,Radioactivity distribution Whole brain,[2]; 60 min after administration,0.02 ± 0.00 % ID/g
same,stability in human plasma,[3],hardly metabolized and decomposed in the plasma
same,Radiochemical purity after incubation in human plasma,[3]; TLC analysis,88%
